Two molecules from US11083197B2, “Herbicidal composition comprising chromone derivatives and a method for weed control” (INVESTIGACIONES BIOLÓGICAS EN AGROQUÍMICOS ROSARIO S.A., priority 2015, dated 2021) can be followed below.

Read-outs that look alike come from different tables or passages of the source.

Experiment [1] relates to duckweed (Lemna paucicostata). Nature of the experiment: Dose-response bioassay with duckweed. It is filed as in vivo. To be noted: frond area increase between days 1 and 7, read-out: IC50 (μM) ± SE, duckweed growth inhibition. The procedure: Phytotoxic activity of compounds of formula III and IV above as evaluated on duckweed. Duckweed stocks were grown from a single colony consisting of a mother and two daughter fronds in a beaker on modified Hoagland media (Table 3 below). The medium was adjusted to pH 5.5 with 1 M NaOH and filtered through a 0.2 μm filter. Each well of non-pyrogenic polystyrene sterile 6-well plates was filled with 4.950 ml of Hoagland media and, 50 μl of distilled water, 50 μl of acetone in solvent control or 50 μl of acetone containing the appropriate concentration of test compound. The final concentration of acetone was 1% v/v. Two, three-frond colonies from 4 to 5 d-old stock cultures were placed in each well. Plates were placed in an incubator with white light (94.2 μE m^−2 s^−1). Total frond area per well was recorded by the Scanalyzer (LemnaTec, Germany) image analysis system from days 0 to 7. Percentage of increase between days 1 and 7 was determined relative to baseline area at day zero.
Percentage of increase between days 1 and 7 was determined relative to baseline area at day zero. Data represents means of three replicates±SD.
Statistical Analysis. Data from dose-response experiments were analyzed by a log-logistic model^37-38 using the dose-response curve module^39 of R software version 2.2.1.^40 Concentrations required for 50% germination or growth inhibition relative to control (IC50 values) were obtained from estimated parameters in the regression curves. The standard error (SE) of each estimation is provided. Data from phytotoxicity bioassays in the laboratory and greenhouse, ROS and cell death quantifications were analyzed by ANOVA using the InfoStat statistical software version 2015,^41 and Scheffe's test was employed to compare the means at α=0.05.

The test system of experiment [2] is lettuce. Nature of the experiment: Postemergence bioassay with lettuce in Petri dishes. It is filed as in vivo. As to conditions: Lactuca sativa, post-emergence, day 6 (4 days after postemergence application), read-out: Average growth inhibition (%) as percentage of control; for inhibition at 500 µM: 0.50 mM; for inhibition at 1000 µM: 1.00 mM; for inhibition at 1500 µM: 1.50 mM. The procedure: Compounds of formula III and IV above were tested at different concentrations in a postemergence bioassay (in Petri dishes) against lettuce. Lettuce seeds were pre-incubated in Petri dishes with a filter paper and water for 2 days. After that, seedlings (15 mm approx.) were moved to a new Petri dish containing 4 mL of an aqueous solution of each compound or commercial herbicide. Plants length was measured at day 6 (4 days after postemergence application of the compounds). The results were compared to those obtained with acetochlor and glyphosate.
Plant length's axis starts in 15 mm because seeds were pre-incubated in water, so all seedlings were around 15 mm long at the beginning of the treatment.

Experiment [3] relates to ryegrass, barnyardgrass, crabgrass, foxtail, millet, morningglory and velvetleaf. Nature of the experiment: Pre-emergence bioassay in Petri dishes against different weeds. In kind it is in vivo. As to conditions: 0.5 and 1.0 mM. The procedure: Compounds of Formulas III and IV above were tested in a pre-emergence bioassay (in Petri dishes) against different weeds at 0.5 and 1.0 mM. The seeds of different weeds were placed in Petri dishes with a filter paper and 4 mL of an aqueous solution of each compound or commercial herbicide.
Plant length was measured at 7 days of incubation.

The subject of experiment [4] is crabgrass (D. sanguinalis) and velvetleaf (A. theophrasti). Briefly: Greenhouse postemergence spray, 2.0 kg ai/ha. In kind it is in vivo, Digitaria sanguinalis; Abutilon theophrasti. To be noted: for symptoms on leaves after post-emergence spray: 6-8-day-old plants, both weed species. The procedure:
Aqueous solutions containing commercial standards of pure compounds of formulas III and IV were prepared and sprayed on crabgrass (D. sanguinalis) and velvetleaf (A. theophrasti). For better dissolution of compounds in water Tween 20 (1% v/v) and acetone (1% v/v) were added to spray solution. For postemergence application 6-8-day-old plants were sprayed, and final rate of compounds was 2.0 kg active ingredient (ai) ha^−1. Plant height and dry weight were measured at 11 days after spray. Results were compared with atrazine at 1.0 kg ai ha^−1.

Experiment [5] concerns lettuce. Nature of the experiment: Phytotoxic effect on lettuce under different conditions of illumination. In kind it is in vivo, Lactuca sativa. As to conditions: 1 mM; light versus darkness; 7 days. The procedure: Bioassays were carried out with lettuce in Petri dishes using the commercial standards of each compound. Lettuce seeds were incubated with 4 mL of an aqueous solution of compounds or acetochlor at 1 mM. Lettuce growth was measured at 7 days of incubation.
The results of this test are shown in FIG. 14 where the Left column (diagonal stripes)=Light and the Right column (in black)=Darkness. Acetochlor was included as a reference of pre-emergent herbicide and to get the highest herbicidal effect, all compounds were tested at 1 mM. Data represent means of three replicates±SD. Different letters above the bars indicate significant differences between treatments (p<0.05).

In a further experiment the test system is cucumber leaf disks. Briefly: Cell death determination by Evans blue staining, leaf disks. In kind it is cell-based. As to conditions: 7 days; for increase in relative cell death with respect to the control: 100 μM; for increase in relative cell death: 300 μM. The procedure: (§1) To evaluate cell death in roots, onion seeds were germinated and treated as described in postemergence assay with weed species. Onion seedlings were exposed to different doses of compounds of formulas III and IV (0, 100 and 300 μM) during 4 days. For the experiment with leaf disks 3-weeks-cucumber plants were used. One disk (1 cm) was placed in each well of a 12-well plate together with 1 mL of a 2% w/v sucrose/1 mM MES, pH 6.5 solution containing each of the compounds tested at the appropriate concentration (0, 100 or 300 μM) and acetone (1% v/v). Each assay was performed with leaf disks from different plants. Plates were sealed with Parafilm and incubated in a growth chamber at 21-27° C. with a 16/8 h light/dark cycle for 7 days.
(§2) Cell death was determined by Evans blue staining.^26 Root tips (5-mm sections) and leaf disks were incubated for 30 min in 0.25% w/v Evans blue aqueous solution at 25° C. on a rotary shaker. After staining, unbound dye was removed by extensive washing with deionized water. Three root tips (3 replicates) or one leaf disk (4 replicates) were ground in a tissue grind tube with 500 μL 1% w/v sodium dodecyl sulfate (SDS). The resulting suspension was centrifuged for 20 min at 20,000 g and the supernatant was used for dye quantification by monitoring the absorbance at 600 and 680 nm. Relative cell death was expressed as A600 for root tips and A600/A680 ratios for leaf disks.

The next experiment concerns onion root tips. Nature of the experiment: Cell death determination by Evans blue staining, root tips. In kind it is cell-based, Allium cepa. As to conditions: 4 days; for increase in relative cell death: 100 μM; for increase in relative cell death compared to 100 μM: 300 μM. The procedure:
as §1, §2

One may read the IC50 as the midpoint of a concentration-inhibition curve. What is called inhibition is the drop in the measured response relative to a control, in per cent. For the molecule `COc1c2occc2c(OC)c2c(=O)cc(C)oc12` [Formula III, 4,9-dimethoxy-7-methyl-5H-furo[3,2-g]chromen-5-one], the IC50 in experiment [1] (Lemna aequinoctialis) came out at 160 µM. Moreover, in experiment [1], the 50% inhibitory concentration (IC50) amounted to 162 ± 29 µM. Moreover, in the experiment with lettuce [2], the inhibition at 500 µM turned out to be 22%, the inhibition at 1000 µM was 85% and the inhibition at 1500 µM is 91%. In addition, the “effect on growth and germination of different weeds” value in experiment [3] is “strongly interfered”. The “symptoms on leaves after post-emergence spray” value in experiment [4] is “Necrosis symptoms”. Besides, in the experiment on lettuce [5], the “light dependence of phytotoxicity or herbicidal activity” value is reported as “not a light-dependent process”. Moreover, in the experiment with cucumber leaf disks, the “increase in relative cell death with respect to the control” value is on record as ~35% and the “increase in relative cell death” value was determined as 3.5 fold. Besides, in the experiment with onion root tips, the “increase in relative cell death” value is recorded as “two-fold” and the “increase in relative cell death compared to 100 μM” value is listed as “two-fold”.
In the case of `COc1c2ccoc2cc2oc(C)cc(=O)c12` [Formula IV, 4-methoxy-7-methyl-5H-furo[3,2-g]chromen-5-one], the IC50 in experiment [1] (Lemna aequinoctialis) is 120 µM. Also, in experiment [1], the IC50 worked out at 122 ± 28 µM. Further, in the experiment on lettuce [2], the inhibition at 500 µM was found to be 22%, the inhibition at 1000 µM was 85% and the inhibition at 1500 µM was found to be 91%. The “effect on growth and germination of different weeds” value in experiment [3] is “strongly interfered”. In experiment [4], the “symptoms on leaves after post-emergence spray” value was “Necrosis symptoms”. Moreover, in experiment [4] (11 days after spray), the “plant size and biomass respect solvent control” value was “significant reduction of plant size and biomass”. Moreover, the “light dependence of phytotoxicity or herbicidal activity” value in the experiment with lettuce [5] is “not a light-dependent process”. Besides, in the experiment on cucumber leaf disks, the “increase in relative cell death with respect to the control” value was ~35% and the “increase in relative cell death” value is 3.5 fold. Moreover, in the experiment on onion root tips, the “increase in relative cell death” value is given as “two-fold” and the “increase in relative cell death compared to 100 μM” value is “two-fold”.
